Measured values as given in publication PMC6428247, “Potent inhibitors of equine steroid isomerase EcaGST A3-3” (PLoS ONE, 2019).
Where “and” joins values, the source holds several entries; their conditions need not be identical. Identical values can stand only once. Like-named read-outs stand apart in the source and are kept apart here.

T1: HsaGST A3-3 (Homo sapiens, UniProt Q16772)
T1 construct: made in house
T1 sequence (Q16772 1-222): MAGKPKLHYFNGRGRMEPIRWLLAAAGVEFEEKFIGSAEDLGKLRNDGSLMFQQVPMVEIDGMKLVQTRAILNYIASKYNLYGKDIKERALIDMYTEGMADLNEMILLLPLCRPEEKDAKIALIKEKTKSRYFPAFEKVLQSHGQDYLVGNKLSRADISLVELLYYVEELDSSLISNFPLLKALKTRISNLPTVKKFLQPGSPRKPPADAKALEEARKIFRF

T2: HsaGST M2-2 (Homo sapiens, UniProt P28161)
T2 construct: made in house
T2 sequence (P28161 1-218): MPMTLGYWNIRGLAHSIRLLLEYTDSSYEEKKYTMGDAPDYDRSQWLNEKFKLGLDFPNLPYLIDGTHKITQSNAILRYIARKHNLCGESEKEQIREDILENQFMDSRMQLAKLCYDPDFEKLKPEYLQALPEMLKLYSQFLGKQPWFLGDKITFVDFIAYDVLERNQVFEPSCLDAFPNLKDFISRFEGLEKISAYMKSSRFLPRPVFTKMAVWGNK

B1: EcaGST A3-3 (Equus caballus) (protein)
chain: MAVKPMLHYFNGRGRMEPIRWLLAAAGVEFEETFIDTPEDFEKLKNDGSLMFQQVPMVEIDGMKLVQSRAILNYVAAKHNLYGKDIKERALIDMYIEGVADLNEMILLLPITPPAEKDAKIMLIKDRTTNRYLPAFEKVLKSHGEDYLVGNRLSRADIHLVELLYLVEELDPSLLTNFPLLKALKARISNLPTVKKFLQPGGARKPPGDEKSVEKSRKIFKF

Legend:
HsaGST A3-3 [1] = target: T1, HsaGST A3-3; test: Inhibition of HsaGST A3-3 CDNB activity; format: biochemical; conditions: for Inhibition (%) of HsaGST A3-3: 10 μM inhibitor
Experimental: (§1) EcaGST A3-3 [10], HsaGST A3-3 [12] and HsaGST M2-2 [13] were cloned, expressed and purified as described previously. Protein concentration was determined by means of the Bradford assay.
(§2) The conjugation of GSH with the electrophilic substrate CDNB was used as a biochemical assay for general activity measurements. Screening of the US Drug library for inhibition was done in triplicates in 96-well plates in a Thermo Scientific Multiskan GO spectrophotometer. The conjugation activity at 30°C was monitored at 340 nm for 1 min in 0.1 M sodium phosphate buffer at pH 6.5 and 10 μM inhibitor concentration in a final volume of 300 μL. Initial concentrations of GSH and CDNB were 1 mM.
(§3) For understanding the effects of pharmacological interventions based on GST inhibitors, it is important to know the selectivity among the numerous GSTs. […] All values were determined with CDNB, which is a common substrate for all the enzymes.

HsaGST P1-1 = test system: HsaGST P1-1; parameters: method as in PMID 23769903; conditions: 1 mM GSH, 1 mM CDNB, pH 6.5, 30°C, cited from earlier work; for Inhibition (%) of HsaGST P1-1: 3.3 μM inhibitor; for IC50: CDNB activity
EcaGST A3-3 [2] = target: T3, EcaGST A3-3 (Equus caballus, UniProt M9ZT87); test: Inhibition of EcaGST A3-3 activity, GSH conjugation with CDNB; format: biochemical, Equus ferus caballus; conditions: for Inhibition (%) of EcaGST A3-3: 10 μM inhibitor, sodium phosphate pH 6.5, 30°C; for inhibition at 10 µM: pH 6.5, read-out: Inhibition (%) of EcaGST A3-3, 10 μM inhibitor, 1 mM GSH, 1 mM CDNB, sodium phosphate pH 6.5, 30°C
Experimental: The final solvent concentration in the reaction system was kept at 5% (v/v) as a maximum.
as §2
Assay conditions for inhibition measurements of enzyme activity with CDNB were the following: EcaGST A3-3 15 nM, initial concentrations of GSH and CDNB 1 mM, inhibitor concentrations varying from 0.029 μM to 15 μM, in 100 mM Na2HPO4/NaH2PO4 at pH 6.5.
The reactions were followed spectrophotometrically for 1 min at 30°C using a Shimadzu UV-2501 PC spectrophotometer (Shimadzu Inc.). All experiments included triplicate measurements in each data point.
The equation for competitive inhibition fitted by non-linear regression was v=Vmax[S]/KM(1+[I]/Ki)+[S] where [S] is the substrate concentrations and [I] is the inhibitor concentration.

HsaGST S1-1 = test system: HsaGST S1-1; parameters: method as in PMID 25603235; conditions: 1 mM GSH, 1 mM CDNB, pH 6.5, 30°C, cited from earlier work; for Inhibition (%) of HsaGST S1-1: 10 μM inhibitor; for IC50: CDNB activity
HsaGST M2-2 = target: T2, HsaGST M2-2; test: Inhibition of HsaGST M2-2 CDNB activity; format: biochemical
Experimental: as §1, §2, §3

HsaGST A3-3 [3] = target: T1, HsaGST A3-3; parameters: method as in PMID 23769903; conditions: CDNB activity, 1 mM GSH, 1 mM CDNB, pH 6.5, 30°C; read-out: IC50 HsaGST A3-3 (published); cited from earlier work
EcaGST A3-3 [4] = target: T3, EcaGST A3-3; test: Inhibition of EcaGST A3-3 steroid double-bond isomerase activity with Δ^5-AD; format: biochemical, Equus ferus caballus
[5] = substrate: CC12CCC3C(CC=C4CC(=O)CCC43C)C1CCC2=O; test: purified protein, by the assay type; conditions: other: 1 mM GSH, fitted with and without anthralin; 30.0 °C
[6] = pH 6.5, 10 μM inhibitor, 1 mM GSH, 1 mM CDNB, pH 6.5, 30°C, read-out: Inhibition (%) of HsaGST A3-3
[7] = 1 mM CDNB, 1 mM GSH, 100 mM sodium phosphate pH 6.5, 30°C, read-out: IC50 EcaGST A3-3, substrate CDNB
[8] = 10 μM inhibitor, 1 mM GSH, 1 mM CDNB, pH 6.5, 30°C, read-out: Inhibition (%) of HsaGST M2-2
[9] = 1 mM GSH, 1 mM CDNB, pH 6.5, 30°C
[10] = 10 μM inhibitor, 1 mM GSH, 1 mM CDNB, pH 6.5, 30°C
[11] = 0.1 mM Δ^5-AD, 1 mM GSH, 25 mM sodium phosphate pH 8.0, 30°C

Molecule | inhibition at 10 µM (HsaGST A3-3 [1]; [6]) | Inhibition (%) of HsaGST P1-1 (HsaGST P1-1) | Inhibition (%) of EcaGST A3-3 (EcaGST A3-3 [2]; 1 mM GSH, 1 mM CDNB) | IC50 (EcaGST A3-3 [2]; [7]) | Inhibition (%) of HsaGST S1-1 (HsaGST S1-1) | IC50 (HsaGST S1-1) | inhibition at 10 µM (HsaGST M2-2; [8]) | IC50 (HsaGST A3-3 [3]) | IC50 (EcaGST A3-3 [4]) | Inhibition (%) of HsaGST A3-3 (HsaGST A3-3 [1]; [9]) | IC50 (HsaGST P1-1) | IC50 (EcaGST A3-3 [2]) | inhibition at 10 µM (EcaGST A3-3 [2]) | Inhibition (%) of HsaGST M2-2 (HsaGST M2-2; [10]) | IC50 EcaGST A3-3, substrate Δ^5-AD (EcaGST A3-3 [4]; [11]) | other results
Oc1c(Cl)cc(Cl)cc1Sc1cc(Cl)cc(Cl)c1O [Bithionate sodium] | 47% | 10% | 64 ± 22% | 1900 ± 520 nM | 47% | 12000 nM | 73% | 700 nM | 1600 ± 310 nM | – | – | – | – | – | – | –
C=C(CC)C(=O)c1ccc(OCC(=O)O)c(Cl)c1Cl [Ethacrynic acid] | 94 to 100% | 25% | 100% | – | 32% | 44000 nM | 0% | 400 nM | 250 ± 100 nM | 94% | 4900 nM | 180 ± 67 nM | 94 to 100% | low or negligible effects | submicromolar range | Inhibition (%) of HsaGST P1-1 (HsaGST P1-1; listed as ethacrynic acid): low or negligible effects; Inhibition modality, substrate CDNB (EcaGST A3-3 [2]; CDNB varied, 1 mM GSH): Competitive; Ki (EcaGST A3-3 [2]; Ki, EcaGST A3-3, substrate CDNB, CDNB varied, 1 mM GSH, 0.25 μM inhibitor): 140 nM and 141 nM; Hill coefficient, CDNB inhibition (EcaGST A3-3 [2]; dose-response curve, substrate CDNB, mean ± SD): 2.5±0.21; Inhibition (%) of HsaGST S1-1 (HsaGST S1-1; listed as ethacrynic acid): low or negligible effects; Hill coefficient, Δ^5-AD inhibition (EcaGST A3-3 [4]; dose-response curve, substrate Δ^5-AD, mean ± SD): 1.0
Oc1c(Cl)cc(Cl)c(Cl)c1Cc1c(O)c(Cl)cc(Cl)c1Cl [Hexachlorophene] | – | 34% | – | – | 61% | 8900 nM | – | 160 nM | 440 ± 220 nM | – | 9700 nM | 320 ± 36 nM | 96 ± 1.1% | – | – | inhibition at 10 µM (HsaGST A3-3 [1]; pH 6.5, read-out: Inhibition (%) of HsaGST A3-3): 89%; IC50 (HsaGST M2-2): 1500 nM; inhibition at 10 µM (HsaGST M2-2; pH 6.5, read-out: Inhibition (%) of HsaGST M2-2): 98%
O=C([O-])c1ccccc1-c1c2cc(Br)c(=O)cc-2oc2[c]([Hg+])c([O-])c(Br)cc12.[Na+].[Na+].[OH-] [Merbromin] | – | 44% | 95 ± 18% | 2600 ± 630 nM | 85% | 3300 nM | – | 660 nM | – | 98% | 3100 nM | – | – | 85% | – | IC50 (HsaGST M2-2; CDNB activity, 1 mM GSH, 1 mM CDNB, pH 6.5, 30°C, read-out: IC50 HsaGST M2-2): 4900 nM; IC50 (EcaGST A3-3 [4]; read-out: IC50 EcaGST A3-3, substrate Δ^5-AD, 0.1 mM Δ^5-AD, 1 mM GSH, 25 mM sodium phosphate pH 8.0, 30°C): 2500 ± 480 nM
Chlorophyllide Cu-complex Na salt | – | 51% | 98 ±2.2% | 2100 ± 270 nM | 100% | 1700 nM | – | 330 nM | – | 84% | 2300 nM | – | – | 100% | Anomalous curve | –
B1 | – | – | – | – | – | – | – | – | – | – | – | – | – | – | – | Km [5]: 10.8 ± 0.46 µM
